These results are taken from ChEMBL document CHEMBL1275522, “Antimicrobial studies with the Pseudomonas aeruginosa two-allele library require caution” (2008).

In brackets after ≈: the same amount, converted by molar mass.

Holding throughout (type): functional
Experiment [1] concerns Pseudomonas aeruginosa. Briefly: Antimicrobial against Pseudomonas aeruginosa 30848 harboring phoU allele by broth dilution method.
In experiment [2] the test system is Pseudomonas aeruginosa. Briefly: Antimicrobial against Pseudomonas aeruginosa 32455 harboring phzS allele by broth dilution method.
The subject of experiment [3] is Pseudomonas aeruginosa. The experiment in a line: Antimicrobial against Pseudomonas aeruginosa 3208 harboring phzM allele by broth dilution method.
Experiment [4] has as its system Pseudomonas aeruginosa. Briefly: Antimicrobial against Pseudomonas aeruginosa 3434 by broth dilution method.
Experiment [5] concerns Pseudomonas aeruginosa. The experiment in a line: Antimicrobial against Pseudomonas aeruginosa 3894 by broth dilution method.
The subject of experiment [6] is Pseudomonas aeruginosa. The experiment in a line: Antimicrobial against Pseudomonas aeruginosa 1494 harboring phnA allele by broth dilution method.
In experiment [7] the test system is Pseudomonas aeruginosa. Briefly: Antimicrobial against Pseudomonas aeruginosa 40198 harboring nirJ allele by broth dilution method.
Experiment [8] has as its system Pseudomonas aeruginosa. The experiment in a line: Antimicrobial against Pseudomonas aeruginosa 8564 harboring pyrX allele by broth dilution method.
Experiment [9] concerns Pseudomonas aeruginosa. Briefly: Antimicrobial against Pseudomonas aeruginosa 9256 harboring ybhO allele by broth dilution method.
In experiment [10] the test system is Pseudomonas aeruginosa. Briefly: Antimicrobial against Pseudomonas aeruginosa 8666 by broth dilution method.
In experiment [11] the test system is Pseudomonas aeruginosa. The experiment in a line: Antimicrobial against Pseudomonas aeruginosa 3465 harboring tsaA allele by broth dilution method.
Experiment [12] deals with Pseudomonas aeruginosa. The experiment in a line: Antimicrobial against Pseudomonas aeruginosa 312 harboring PBPP allele by broth dilution method.
The subject of experiment [13] is Pseudomonas aeruginosa. The experiment in a line: Antimicrobial against Pseudomonas aeruginosa 46396 harboring katA allele by broth dilution method.
Experiment [14] relates to Pseudomonas aeruginosa. The experiment in a line: Antimicrobial against Pseudomonas aeruginosa PAO1 by broth dilution method.
Experiment [15] has as its system Pseudomonas aeruginosa. Briefly: Antimicrobial against Pseudomonas aeruginosa 33410 harboring phoU allele by broth dilution method.
Experiment [16] deals with Pseudomonas aeruginosa. The experiment in a line: Antimicrobial against Pseudomonas aeruginosa PAO1 by Etest method.
The test system of experiment [17] is Pseudomonas aeruginosa. The experiment in a line: Antimicrobial against Pseudomonas aeruginosa 33410 harboring phoU allele by Etest method.
Experiment [18] relates to Pseudomonas aeruginosa. Briefly: Antimicrobial against Pseudomonas aeruginosa 30848 harboring phoU allele by Etest method.
The test system of experiment [19] is Pseudomonas aeruginosa. Briefly: Antimicrobial against Pseudomonas aeruginosa 32455 harboring phzS allele by Etest method.
In experiment [20] the test system is Pseudomonas aeruginosa. Briefly: Antimicrobial against Pseudomonas aeruginosa 3208 harboring phzM allele by Etest method.
The subject of experiment [21] is Pseudomonas aeruginosa. The experiment in a line: Antimicrobial against Pseudomonas aeruginosa 3434 by Etest method.
The subject of experiment [22] is Pseudomonas aeruginosa. Briefly: Antimicrobial against Pseudomonas aeruginosa 3894 by Etest method.
Experiment [23] has as its system Pseudomonas aeruginosa. The experiment in a line: Antimicrobial against Pseudomonas aeruginosa 1494 harboring phnA allele by Etest method.
For experiment [24], the system named is Pseudomonas aeruginosa. Briefly: Antimicrobial against Pseudomonas aeruginosa 40198 harboring nirJ allele by Etest method.
The test system of experiment [25] is Pseudomonas aeruginosa. The experiment in a line: Antimicrobial against Pseudomonas aeruginosa 8564 harboring pyrX allele by Etest method.
Experiment [26] relates to Pseudomonas aeruginosa. The experiment in a line: Antimicrobial against Pseudomonas aeruginosa 9256 harboring ybhO allele by Etest method.
Experiment [27] deals with Pseudomonas aeruginosa. The experiment in a line: Antimicrobial against Pseudomonas aeruginosa 8666 by Etest method.
The subject of experiment [28] is Pseudomonas aeruginosa. The experiment in a line: Antimicrobial against Pseudomonas aeruginosa 3465 harboring tsaA allele by Etest method.
Experiment [29] has as its system Pseudomonas aeruginosa. The experiment in a line: Antimicrobial against Pseudomonas aeruginosa 312 harboring PBPP allele by Etest method.
Experiment [30] concerns Pseudomonas aeruginosa. The experiment in a line: Antimicrobial against Pseudomonas aeruginosa 46396 harboring katA allele by Etest method.

For the molecule `NC[C@H]1O[C@H](O[C@H]2[C@H](O)[C@@H](O[C@H]3O[C@H](CO)[C@@H](O)[C@H](N)[C@H]3O)[C@H](N)C[C@@H]2N)[C@H](N)C[C@@H]1O` [TOBRAMYCIN], the minimum inhibitory concentration (MIC) with Pseudomonas aeruginosa [1] came out at 0.4 µg/mL (≈ 0.856 µM); with Pseudomonas aeruginosa [2] it was 0.4 µg/mL (≈ 0.856 µM); against Pseudomonas aeruginosa [3] it was 0.2 µg/mL (≈ 0.428 µM); in the experiment on Pseudomonas aeruginosa [4], 0.4 µg/mL (≈ 0.856 µM); against Pseudomonas aeruginosa [5], 0.4 µg/mL (≈ 0.856 µM); in the experiment with Pseudomonas aeruginosa [6], 0.4 µg/mL (≈ 0.856 µM). Also, the MIC in the experiment on Pseudomonas aeruginosa [7] worked out at 0.4 µg/mL (≈ 0.856 µM); against Pseudomonas aeruginosa [8] it was 0.2 µg/mL (≈ 0.428 µM); with Pseudomonas aeruginosa [9], 0.4 µg/mL (≈ 0.856 µM); in the experiment on Pseudomonas aeruginosa [10], 0.2 µg/mL (≈ 0.428 µM); in the experiment on Pseudomonas aeruginosa [11], 0.2 µg/mL (≈ 0.428 µM); against Pseudomonas aeruginosa [12] it was 0.2 µg/mL (≈ 0.428 µM). For the same molecule, the MIC was 0.2 µg/mL (≈ 0.428 µM) against Pseudomonas aeruginosa [13], 0.2 µg/mL (≈ 0.428 µM) with Pseudomonas aeruginosa [14] and 0.4 µg/mL (≈ 0.856 µM) in the experiment with Pseudomonas aeruginosa [15].
For `CCn1cc(C(=O)O)c(=O)c2cc3c(cc21)OCO3` [OXOLINIC ACID], the MIC against Pseudomonas aeruginosa [1] was determined as 16 µg/mL (≈ 61.2 µM); against Pseudomonas aeruginosa [2] it was 4 µg/mL (≈ 15.3 µM); in the experiment with Pseudomonas aeruginosa [3], 4 µg/mL (≈ 15.3 µM); in the experiment on Pseudomonas aeruginosa [4] it was 4 µg/mL (≈ 15.3 µM); with Pseudomonas aeruginosa [5], 8 µg/mL (≈ 30.6 µM); against Pseudomonas aeruginosa [6], 8 µg/mL (≈ 30.6 µM). The MIC came out at 8 µg/mL (≈ 30.6 µM) in the experiment with Pseudomonas aeruginosa [7]; 8 µg/mL (≈ 30.6 µM) with Pseudomonas aeruginosa [8]; 8 µg/mL (≈ 30.6 µM) in the experiment on Pseudomonas aeruginosa [9]; 8 µg/mL (≈ 30.6 µM) in the experiment with Pseudomonas aeruginosa [10]; 4 µg/mL (≈ 15.3 µM) in the experiment on Pseudomonas aeruginosa [11]; 8 µg/mL (≈ 30.6 µM) against Pseudomonas aeruginosa [12]. Also, the MIC against Pseudomonas aeruginosa [13] was 8 µg/mL (≈ 30.6 µM); in the experiment with Pseudomonas aeruginosa [14], 64 µg/mL (≈ 245 µM); with Pseudomonas aeruginosa [15], 4 µg/mL (≈ 15.3 µM).
Consider `CC(C)(O/N=C(\C(=O)N[C@@H]1C(=O)N2C(C(=O)[O-])=C(C[n+]3ccccc3)CS[C@H]12)c1csc(N)n1)C(=O)O` [CEFTAZIDIME], for which the MIC in the experiment on Pseudomonas aeruginosa [16] is 2 µg/mL (≈ 3.66 µM); against Pseudomonas aeruginosa [17] it was 1.5 µg/mL (≈ 2.74 µM); in the experiment on Pseudomonas aeruginosa [18] it was 3 µg/mL (≈ 5.49 µM); against Pseudomonas aeruginosa [19] it was 2 µg/mL (≈ 3.66 µM); against Pseudomonas aeruginosa [20], 2 µg/mL (≈ 3.66 µM); with Pseudomonas aeruginosa [21], 2.5 µg/mL (≈ 4.57 µM). The MIC came to 2.5 µg/mL (≈ 4.57 µM) in the experiment with Pseudomonas aeruginosa [22]; 1.5 µg/mL (≈ 2.74 µM) with Pseudomonas aeruginosa [23]; 1.5 µg/mL (≈ 2.74 µM) in the experiment with Pseudomonas aeruginosa [24]; 1.5 µg/mL (≈ 2.74 µM) with Pseudomonas aeruginosa [25]; 2 µg/mL (≈ 3.66 µM) against Pseudomonas aeruginosa [26]; 2 µg/mL (≈ 3.66 µM) in the experiment on Pseudomonas aeruginosa [27]. Besides, the MIC in the experiment on Pseudomonas aeruginosa [28], against Pseudomonas aeruginosa [29] and with Pseudomonas aeruginosa [30] was 2 µg/mL (≈ 3.66 µM) in each case.
`C[C@@H](O)[C@H]1C(=O)N2C(C(=O)O)=C(S[C@@H]3CN[C@H](C(=O)N(C)C)C3)[C@H](C)[C@H]12` [MEROPENEM]: the MIC in the experiment on Pseudomonas aeruginosa [16] was found to be 0.38 µg/mL (≈ 0.991 µM); against Pseudomonas aeruginosa [17] it was 0.38 µg/mL (≈ 0.991 µM); with Pseudomonas aeruginosa [18], 0.5 µg/mL (≈ 1.3 µM); against Pseudomonas aeruginosa [19] it was 0.25 µg/mL (≈ 0.652 µM); against Pseudomonas aeruginosa [20], 0.38 µg/mL (≈ 0.991 µM); in the experiment on Pseudomonas aeruginosa [21], 0.38 µg/mL (≈ 0.991 µM). In addition, the MIC in the experiment with Pseudomonas aeruginosa [22] amounted to 0.19 µg/mL (≈ 0.495 µM); in the experiment with Pseudomonas aeruginosa [23], 0.38 µg/mL (≈ 0.991 µM); with Pseudomonas aeruginosa [24] it was 0.25 µg/mL (≈ 0.652 µM); in the experiment on Pseudomonas aeruginosa [25], 0.38 µg/mL (≈ 0.991 µM); in the experiment with Pseudomonas aeruginosa [26], 0.25 µg/mL (≈ 0.652 µM); against Pseudomonas aeruginosa [27], 0.25 µg/mL (≈ 0.652 µM). In addition, the MIC against Pseudomonas aeruginosa [28], in the experiment on Pseudomonas aeruginosa [29] and in the experiment on Pseudomonas aeruginosa [30] was 0.25 µg/mL (≈ 0.652 µM) each time.
For `O=C(O)c1cn(C2CC2)c2cc(N3CCNCC3)c(F)cc2c1=O` [CIPROFLOXACIN], the MIC against Pseudomonas aeruginosa [1] was 0.2 µg/mL (≈ 0.604 µM); in the experiment on Pseudomonas aeruginosa [2], 0.1 µg/mL (≈ 0.302 µM); in the experiment with Pseudomonas aeruginosa [3] it was 0.1 µg/mL (≈ 0.302 µM); in the experiment on Pseudomonas aeruginosa [4] it was 0.05 µg/mL (≈ 0.151 µM); against Pseudomonas aeruginosa [5], 0.05 µg/mL (≈ 0.151 µM); in the experiment on Pseudomonas aeruginosa [6], 0.1 µg/mL (≈ 0.302 µM). Besides, the MIC in the experiment on Pseudomonas aeruginosa [7], with Pseudomonas aeruginosa [8], against Pseudomonas aeruginosa [9], in the experiment on Pseudomonas aeruginosa [10], in the experiment on Pseudomonas aeruginosa [11] and with Pseudomonas aeruginosa [12] was 0.1 µg/mL (≈ 0.302 µM) throughout. For the same molecule, the MIC in the experiment with Pseudomonas aeruginosa [13] stood at 0.1 µg/mL (≈ 0.302 µM); against Pseudomonas aeruginosa [14], 0.8 µg/mL (≈ 2.41 µM); against Pseudomonas aeruginosa [15], 0.05 µg/mL (≈ 0.151 µM).
For the molecule `O=C(N[C@H](CO)[C@H](O)c1ccc([N+](=O)[O-])cc1)C(Cl)Cl` [CHLORAMPHENICOL], the MIC came to 200 µg/mL (≈ 619 µM) against Pseudomonas aeruginosa [1]; 12.5 µg/mL (≈ 38.7 µM) against Pseudomonas aeruginosa [2]; 12.5 µg/mL (≈ 38.7 µM) against Pseudomonas aeruginosa [3]; 25 µg/mL (≈ 77.4 µM) in the experiment on Pseudomonas aeruginosa [4]; 12.5 µg/mL (≈ 38.7 µM) in the experiment on Pseudomonas aeruginosa [5]; 12.5 µg/mL (≈ 38.7 µM) with Pseudomonas aeruginosa [6]. In addition, the MIC with Pseudomonas aeruginosa [7], in the experiment on Pseudomonas aeruginosa [8], in the experiment with Pseudomonas aeruginosa [9], in the experiment on Pseudomonas aeruginosa [10], in the experiment with Pseudomonas aeruginosa [11] and in the experiment with Pseudomonas aeruginosa [12] was 12.5 µg/mL (≈ 38.7 µM) in each case. For the same molecule, the MIC in the experiment on Pseudomonas aeruginosa [13] was 12.5 µg/mL (≈ 38.7 µM); with Pseudomonas aeruginosa [14] it was 800 µg/mL (≈ 2480 µM); in the experiment on Pseudomonas aeruginosa [15], 12.5 µg/mL (≈ 38.7 µM).
